# Experimental data published in patent publication US20210369684A1 (MOUNT TAM THERAPEUTICS, INC., priority 2018, published 2021).
# What was measured:
# 6-OHDA injected mice [1] = assay: Anti-TH immunohistochemistry, 6-OHDA-induced striatal denervation; format: in vivo, mouse; details: one-way ANOVA, FIG. 3B
# Description: Immunohistochemistry analysis using anti-tyrosine hydroxylase (TH) antibody was performed in mouse midbrain sections to quantify 6-OHDA-induced striatal denervation in mice injected with 6-OHDA and non-injected (control) sides of the brain. […] In contrast, both the 6-OHDA/rapamycin-treated and the 6-OHDA/Formula II-treated sides of the brain show increased staining with the anti-TH antibody, as indicated by the dark shading in those figures. FIG. 3B presents the mean and standard error of the mean (SEM) of the integrated density of anti-TH antibody staining in the striatum, as well as statistical analysis of the results for the groups of mice.
# 6-OHDA injected mice [2] = assay: Anti-TH immunohistochemistry, 6-OHDA-induced neuronal loss (TH-positive somas in SN); format: in vivo, mouse; details: one-way ANOVA, FIG. 4B
# Description: Immunohistochemistry analysis using anti-tyrosine hydroxylase (TH) antibody was also performed to quantify 6-OHDA-induced neuronal loss in mice injected with 6-OHDA and non-injected (control) sides of the brain. […] FIG. 4B presents the mean and standard error of the mean (SEM) as well as statistical analysis of the results.
smiles,measurement,setting,value
"CO[C@H]1C[C@@H]2CC[C@@H](C)[C@@](O)(O2)C(=O)C(=O)N2CCCC[C@H]2C(=O)O[C@H]([C@H](C)C[C@@H]2CC[C@@H](O)[C@H](OC)C2)CC(=O)[C@H](C)/C=C(\C)[C@@H](O)[C@@H](OC)C(=O)[C@H](C)C[C@H](C)/C=C/C=C/C=C/1C [rapamycin, Rapamycin, reference compound]","integrated density of anti-TH staining in striatum, p versus vehicle control",6-OHDA injected mice [1],< 0.05
same,"TH+ neuronal loss, p versus vehicle control",6-OHDA injected mice [2],< 0.001
